In publication PMC4170518 (Biochemistry, 2013):

How the values were obtained:
[1] = molecular target: T1, class II fructose 1,6-bisphosphate aldolase (MtFBA) (Mycobacterium tuberculosis, UniProt P9WQA3); test: biochemical; type: binding
[2] = molecular target: T1, class II fructose 1,6-bisphosphate aldolase (MtFBA); test: biochemical

T1 sequence (P9WQA3 whole entry): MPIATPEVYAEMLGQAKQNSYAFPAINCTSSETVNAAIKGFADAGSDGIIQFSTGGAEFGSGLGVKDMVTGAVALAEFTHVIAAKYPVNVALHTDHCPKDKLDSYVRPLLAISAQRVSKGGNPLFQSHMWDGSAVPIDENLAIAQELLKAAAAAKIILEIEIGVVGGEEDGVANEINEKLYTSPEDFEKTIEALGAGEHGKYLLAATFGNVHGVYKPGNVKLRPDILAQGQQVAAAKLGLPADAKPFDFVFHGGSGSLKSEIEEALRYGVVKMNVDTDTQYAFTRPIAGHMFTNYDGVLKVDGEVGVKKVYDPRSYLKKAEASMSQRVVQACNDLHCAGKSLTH

Compound | Kd [1] [nM] | Ki [2] [µM]
O=C(COP(=O)(O)O)NO [PGH, phosphoglycolohydroxamate] | 21.1 ± 0.2 | 
O=C(CO)COP(=O)(O)O [DHAP, dihydroxyacetone phosphate] |  | 238 ± 20
